# From US20200270225A1, “Chiral Diacylhydrazine Ligands for Modulating the Expression of Exogenous Genes via an Ecdysone Receptor Complex” (Intrexon Corporation, priority 2007, published 2020)
# pEC50: −log10 of the molar value. Where two headings read alike, the source gives them in different places.
# Experiments:
# [1] = target: wild-type Choristoneura fumiferana EcR (D, E and F domains) (Choristoneura fumiferana, UniProt O77240); type: cell-based; conditions: WT-CtEcR, 3T3 Cells; for RMFI (relative maximum fold induction): relative to GS-E ligand
# Experimental: (§1) Cellular gene switch assays were performed by transiently transfecting the following constructs in mouse embryonic fibroblast cells (NIH3T3). The wild-type D, E and F domains from Choristoneura fumiferana EcR or its V390I/Y410E/E274V mutant were fused to GAL4-DBD and placed under the control of the CMV promoter in the pBIND vector (Promega Corporation, Madison, Wis., USA). The DEF domains of EcRs shown were amplified using primers designed based on 20-25 nt sequences at the 5′ and 3′ ends. Restriction enzyme sites EcoR I/BamH I and Xba I were added to 5′ and 3′ primers respectively. The PCR products were digested with appropriate restriction enzymes and cloned into pBIND vector. The EcR LBDs cloned into pBIND vector were verified by sequencing. A chimeric RXR from Homo sapiens RXRP and Locusta migratoria RXR, fused to VP16-AD and placed under the control of an SV40e promoter, was constructed as previously described (Kumar P & Katakam A in Gene Transfer, Friedmann T and Rossi J, eds, pp. 643-651 (2007), Cold Spring Harbor Laboratory Press, Cold Spring Harbor, N.Y.). The inducible luciferase reporter plasmid pFRLuc (Stratagene Cloning Systems, La Jolla, Calif., USA), contains five copies of the GAL4 response element and a synthetic minimal promoter.
# (§2) NIH3T3 cells were maintained at 37′C and 5% CO2 in Dulbecco's modified Eagle's medium (DMEM) supplemented with 10% bovine calf serum, both obtained from Mediatech Inc., Manassas, Va. Cells were planted in a 96-well plate at a density of 2,500 cells/well in 50 μL of growth medium. The following day cells were first treated with 35 μL of serum-free DMEM containing dimethyl sulfoxide (DMSO; control) or a DMSO solution containing ligand. Cells were then transfected with 15 μl of serum-free DMEM containing 0.04 μg of EcR construct, 0.04 ug of RXR construct, and 0.16 μg of luciferase reporter construct per well, using SuperFect™ transfection reagent (Qiagen Inc., Valencia, Calif., USA) according to the manufacturer's instructions. Ligands were tested at 8 doses from 0.01-33 μM and the final DMSO concentration was 0.33% in both control and treatment wells. After a 48 hour post-treatment and transfection incubation, the cells were assayed for luciferase activity using the Bright-Glo™ Luciferase Assay System (Promega Corporation, Madison, Wis., USA) following the manufacturer's instructions. EC50 values were measured minimally in duplicate.
# (§3) Luciferase reporter gene expression was measured 48 h after cell treatment using Bright-Glo™ Luciferase Assay System from Promega (E2650). Luminescence was detected at room temperature using a Dynex MLX microtiter plate luminometer.
# (§4) Each assay was conducted in two separate wells, and the two values were averaged. Fold inductions were calculated by dividing relative light units (“RLU”) in ligand treated cells with RLU in DMSO treated cells. EC50s were calculated from dose response data using a three-parameter logistic model. Relative Max FI was determined as the maximum fold induction of the tested ligand (an embodiment of the invention) observed at any concentration relative to the maximum fold induction of GS™-E ligand (3,5-dimethyl-benzoic acid N-tert-butyl-N′-(2-ethyl-3-methoxy-benzoyl)-hydrazide) observed at any concentration.
# [2] = target: T1, [V390I/Y410E/E274V]-CfEcR (Choristoneura fumiferana, UniProt O77240); type: cell-based; conditions: 3T3 Cells; for RMFI (relative maximum fold induction): relative to GS-E ligand
# T1 construct: assay construct b835
# Experimental: as §1, §2, §3, §4
smiles,measurement,setting,value
C=CCC(C1CCCCC1)N(NC(=O)c1cccc(OC)c1C)C(=O)c1cc(OC)c(C)c(OC)c1 (racemic) [rac-61],pEC50,"[1]; rac, read-out: EC50",~5.48
same,RMFI (relative maximum fold induction),[1]; rac,0.31
same,pEC50,"[2]; rac, read-out: EC50",6.28
same,RMFI (relative maximum fold induction),[2]; rac,0.39
CCCC(N(NC(=O)c1ccc2c(c1CC)OCCO2)C(=O)c1cc(C)cc(C)c1)C(C)(C)C (racemic) [rac-22],pEC50,"[1]; rac, read-out: EC50",9.30
same,RMFI (relative maximum fold induction),[1]; rac,0.88
same,pEC50,"[2]; rac, read-out: EC50",10.23
same,RMFI (relative maximum fold induction),[2]; rac,0.79
"CCC[C@H](N(NC(=O)c1ccccc1F)C(=O)c1cc(C)cc(C)c1)C(C)(C)C [Example 34, (S)-3,5-Dimethyl-benzoic acid N-(1-tert-butyl-butyl)-N′-(2-fluoro-benzoyl)-hydrazide]",pEC50,[1]; S,6.28
same,RMFI (relative maximum fold induction),[1]; S,0.41
same,pEC50,[2]; S,7.07
same,RMFI (relative maximum fold induction),[2]; S,0.64
CCCC(N(NC(=O)c1ccccc1OC)C(=O)c1cc(C)cc(C)c1)C(C)(C)C (racemic) [rac-4],pEC50,"[1]; rac, read-out: EC50",~5.70
same,RMFI (relative maximum fold induction),[1]; rac,0.32
same,pEC50,"[2]; rac, read-out: EC50",~6.52
same,RMFI (relative maximum fold induction),[2]; rac,0.72
"Cc1cc(C)cc(C(=O)N(NC(=O)OCc2ccccc2)[C@@H](CCCO)C(C)(C)C)c1 [Example 63, (S)—N′-(1-tert-Butyl-4-hydroxy-butyl)-N′-(3,5-dimethyl-benzoyl)-hydrazine Carboxylic Acid Benzyl Ester]",pEC50,[1]; S,< 5.00
same,pEC50,[2]; S,< 5.00
"CCC[C@H](N(NC(=O)c1ccc(CC)cc1)C(=O)c1cc(C)cc(C)c1)C(C)(C)C [Example 39, (S)-3,5-Dimethyl-benzoic acid N-(1-tert-butyl-butyl)-N′-(4-ethyl-benzoyl)-hydrazide]",pEC50,[1]; S,6.38
same,RMFI (relative maximum fold induction),[1]; S,0.29
same,pEC50,[2]; S,~7.70
same,RMFI (relative maximum fold induction),[2]; S,0.70
"CCC[C@@H](C1CCCCC1)N(NC(=O)c1ccccc1)C(=O)c1cc(C)cc(C)c1 [Example 57, (S)-3,5-Dimethyl-benzoic acid N′-benzoyl-N-(1-cyclohexyl-butyl)-hydrazide]",pEC50,[1]; S,5.56
same,RMFI (relative maximum fold induction),[1]; S,0.32
same,pEC50,[2]; S,6.11
same,RMFI (relative maximum fold induction),[2]; S,0.50
CCCC(N(NC(=O)c1c(F)cccc1F)C(=O)c1cc(C)cc(C)c1)C(C)(C)C (racemic) [rac-15],pEC50,"[1]; rac, read-out: EC50",7.03
same,RMFI (relative maximum fold induction),[1]; rac,0.68
same,pEC50,"[2]; rac, read-out: EC50",~9.00
same,RMFI (relative maximum fold induction),[2]; rac,0.92
"CCC[C@H](N(NC(=O)c1cccc(OC)c1C)C(=O)c1cc(C)cc(C)c1)C(C)(C)C [Example 47, (S)-3,5-Dimethyl-benzoic acid N-(1-tert-butyl-butyl)-N′-(3-methoxy-2-methyl-benzoyl)-hydrazide]",pEC50,[1]; S,~6.70
same,RMFI (relative maximum fold induction),[1]; S,0.49
same,pEC50,[2]; S,7.25
same,RMFI (relative maximum fold induction),[2]; S,0.57
"C=CC[C@H](C1CCCCC1)N(NC(=O)c1cccc(OC)c1C)C(=O)c1cc(C)cc(C)c1 [Example 60, (R)-3,5-Dimethyl-benzoic acid N-(1-cyclohexyl-but-3-enyl)-N′-(3-methoxy-2-methyl-benzoyl)-hydrazide]",pEC50,[1]; R,~5.70
same,RMFI (relative maximum fold induction),[1]; R,0.62
same,pEC50,[2]; R,6.13
same,RMFI (relative maximum fold induction),[2]; R,0.78
"CCC[C@@H](N(NC(=O)c1ccc2c(c1C)OCO2)C(=O)c1cc(C)cc(C)c1)C(C)(C)C [Example 20, (R)-3,5-Dimethyl-benzoic acid N-(1-tert-butyl-butyl)-N′-(4-methyl-benzo[1,3]dioxole-5-carbonyl)-hydrazide]",pEC50,[1]; R,8.12
same,RMFI (relative maximum fold induction),[1]; R,1.02
same,pEC50,[2]; R,9.59
same,RMFI (relative maximum fold induction),[2]; R,1.01
"CCC[C@H](N(NC(=O)c1cccc(C)c1)C(=O)c1cc(C)cc(C)c1)C(C)(C)C [Example 37, (S)-3,5-Dimethyl-benzoic acid N-(1-tert-butyl-butyl)-N′-(3-methyl-benzoyl)-hydrazide]",pEC50,[1]; S,~5.48
same,RMFI (relative maximum fold induction),[1]; S,0.22
same,pEC50,[2]; S,6.53
same,RMFI (relative maximum fold induction),[2]; S,0.47
"CCC[C@@H](C1CCCCC1)N(NC(=O)c1ccc(CC)cc1)C(=O)c1cc(C)cc(C)c1 [Example 59, (S)-3,5-Dimethyl-benzoic acid N-(1-cyclohexyl-butyl)-N′-(4-ethyl-benzoyl)-hydrazide]",pEC50,[1]; S,~6.00
same,RMFI (relative maximum fold induction),[1]; S,0.28
same,pEC50,[2]; S,~7.52
same,RMFI (relative maximum fold induction),[2]; S,0.35
"CCC[C@@H](C1CCCCC1)N(NC(=O)c1cccc(OC)c1CC)C(=O)c1cc(C)cc(C)c1 [Example 56, (S)-3,5-Dimethyl-benzoic acid N-(1-cyclohexyl-butyl)-N′-(2-ethyl-3-methoxy-benzoyl)-hydrazide]",pEC50,[1]; S,6.80
same,RMFI (relative maximum fold induction),[1]; S,0.37
same,pEC50,[2]; S,6.97
same,RMFI (relative maximum fold induction),[2]; S,0.52
"CCC[C@H](C1CCCCC1)N(NC(=O)c1ccc(CC)cc1)C(=O)c1cc(C)cc(C)c1 [Example 55, (R)-3,5-Dimethyl-benzoic acid N-(1-cyclohexyl-butyl)-N′-(4-ethyl-benzoyl)-hydrazide]",pEC50,[1]; R,~5.70
same,RMFI (relative maximum fold induction),[1]; R,0.26
same,pEC50,[2]; R,~7.15
same,RMFI (relative maximum fold induction),[2]; R,0.42
"CCC[C@@H](N(NC(=O)OC(C)(C)C)C(=O)c1cc(C)cc(C)c1)C(C)(C)C [Example 49, (R)—N′-(1-tert-Butyl-butyl)-N′-(3,5-dimethyl-benzoyl)-hydrazinecarboxylic acid tert-butyl Ester]",pEC50,[1]; R,4.82
same,RMFI (relative maximum fold induction),[1]; R,0.15
same,pEC50,[2]; R,5.56
same,RMFI (relative maximum fold induction),[2]; R,0.59
CCCC(N(NC(=O)c1ccc2c(c1C)OCCO2)C(=O)c1cc(C)cc(C)c1)C(C)(C)C (racemic) [rac-21],pEC50,"[1]; rac, read-out: EC50",8.88
same,RMFI (relative maximum fold induction),[1]; rac,0.86
same,pEC50,"[2]; rac, read-out: EC50",~10.00
same,RMFI (relative maximum fold induction),[2]; rac,0.85
"CCCC(N(NC(=O)c1c(Cl)cccc1Cl)C(=O)c1cc(C)cc(C)c1)C(C)(C)C (racemic) [rac-16, rac-3,5-dimethyl-benzoic acid N-(1-tert-butyl-butyl)-N′-(2,6-dichloro-benzoyl)-hydrazide]",pEC50,[1]; rac,~6.52
same,RMFI (relative maximum fold induction),[1]; rac,0.43
same,pEC50,[2]; rac,~7.52
same,RMFI (relative maximum fold induction),[2]; rac,0.73
"CCC[C@H](C1CCCCC1)N(NC(=O)c1cccc(OC)c1CC)C(=O)c1cc(C)cc(C)c1 [Example 52, (R)-3,5-Dimethyl-benzoic Acid N-(1-cyclohexyl-butyl)-N′-(2-ethyl-3-methoxy-benzoyl)-hydrazide]",pEC50,[1]; R,6.66
same,RMFI (relative maximum fold induction),[1]; R,0.38
same,pEC50,[2]; R,~6.70
same,RMFI (relative maximum fold induction),[2]; R,0.64
CCCC(N(NC(=O)c1ccccc1F)C(=O)c1cc(C)cc(C)c1)C(C)(C)C (racemic) [rac-5],pEC50,"[1]; rac, read-out: EC50",7.09
same,RMFI (relative maximum fold induction),[1]; rac,0.59
same,pEC50,"[2]; rac, read-out: EC50",8.96
same,RMFI (relative maximum fold induction),[2]; rac,0.67
"CCC[C@@H](N(NC(=O)c1cccnc1Cl)C(=O)c1cc(C)cc(C)c1)C(C)(C)C [Example 27, (R)-3,5-Dimethyl-benzoic acid N-(1-tert-butyl-butyl)-N′-(2-chloro-pyridine-3-carbonyl)-hydrazide]",pEC50,[1]; R,7.02
same,RMFI (relative maximum fold induction),[1]; R,0.70
same,pEC50,[2]; R,8.15
same,RMFI (relative maximum fold induction),[2]; R,0.73
CCCC(N(NC(=O)c1cccc(OC)c1CC)C(=O)c1cc(C)cc(C)c1)C(C)(C)C (racemic) [rac-2],pEC50,"[1]; rac, read-out: EC50",~7.00
same,RMFI (relative maximum fold induction),[1]; rac,0.60
same,pEC50,"[2]; rac, read-out: EC50",8.41
same,RMFI (relative maximum fold induction),[2]; rac,0.85
